Test results reported in patent US20250215012A1, “IKZF2 DEGRADERS AND USES THEREOF” (REGENTS OF THE UNIVERSITY OF MICHIGAN, priority 2022, published 2025).
Like-named read-outs stand apart in the source and are kept apart here.

Experiments:
IKZF2 [1] = target: T1, IKZF2 (Homo sapiens (Human), UniProt Q96SW2+Q9UKS7); assay: IKZF2 FACS Assay (Jurkat cells); assay type: cell-based; settings: read-out: IKZF2 FACS degradation Dmax
Experimental: (§1) Jurkat cells (ATCC, Cat […]) were cultured in RPMI1640+10% FBS+1% P/S. Cells were treated at desired compound concentrations (0.05 to 10 μM) and DMSO as vehicle control for 24 hrs.

IKZF2 [2] = target: IKZF2 (Homo sapiens (Human), UniProt Q9UKS7); assay: IKZF2 FACS Assay (Jurkat cells); assay type: cell-based; settings: Jurkat cells, 24 hrs; read-out: IKZF2 FACS degradation DC50
Experimental: as §1

[3] = target: His tagged CRBN+DDB−DLS7+CXU4 (Homo sapiens (Human), UniProt Q96SW2); assay: IC50 Measurements for Binding to CRBN/DDBI (HTRF); settings: Cy5-labeled Thalidomide probe, one hour incubation
IKZF2 [4] = target: T1, IKZF2; assay: IKZF2 HiBit Assay (HEK293T Flp-in-HiBiT cells); assay type: cell-based; settings: for DC50: read-out: IKZF2 HiBit degradation DC50; for Dmax: HEK-293T, read-out: IKZF2 HiBit degradation Dmax
Outline: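 HEK293T Flp-in cells carrying CRISPR-inserted N-terminal HiBiT tag at the endogenous IKZF2 locus were treated with an 11-point, 3-fold dilution from 1 mM (stock) for 6 hrs; final DMSO 0.1%. HiBiT luminescence was detected after lysis with LgBiT/substrate reagent. DMSO-normalized curves gave 50% degradation concentration and Dmax.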

IKZF1 = IKZF1 (Homo sapiens (Human), UniProt Q13422+Q96SW2); assay: IKZF1 HiBit Assay (HEK293T Flp-in-HiBiT-IKZF1 stable cell line); assay type: cell-based; settings: for DC50: read-out: IKZF1 HiBit degradation DC50; for Dmax: HEK-293T, read-out: IKZF1 HiBit degradation Dmax
Outline: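 HEK293T Flp-in cells with CRISPR-inserted N-terminal HiBiT tag treated 6 h with 11-point threefold dilutions (0.1% DMSO). Nano-Glo HiBiT lytic luminescence normalised to DMSO gave the 50%-degradation concentration; Dmax taken as the luminescence range from highest to lowest concentration.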

[5] = HEK293T Flp-in-HiBiT cells, 6 hrs
[6] = HEK293T Flp-in-HiBiT-IKZF1 cells, 6 hrs

Chain of IKZF2 (Homo sapiens (Human), UniProt Q9UKS7) (Q9UKS7 whole entry): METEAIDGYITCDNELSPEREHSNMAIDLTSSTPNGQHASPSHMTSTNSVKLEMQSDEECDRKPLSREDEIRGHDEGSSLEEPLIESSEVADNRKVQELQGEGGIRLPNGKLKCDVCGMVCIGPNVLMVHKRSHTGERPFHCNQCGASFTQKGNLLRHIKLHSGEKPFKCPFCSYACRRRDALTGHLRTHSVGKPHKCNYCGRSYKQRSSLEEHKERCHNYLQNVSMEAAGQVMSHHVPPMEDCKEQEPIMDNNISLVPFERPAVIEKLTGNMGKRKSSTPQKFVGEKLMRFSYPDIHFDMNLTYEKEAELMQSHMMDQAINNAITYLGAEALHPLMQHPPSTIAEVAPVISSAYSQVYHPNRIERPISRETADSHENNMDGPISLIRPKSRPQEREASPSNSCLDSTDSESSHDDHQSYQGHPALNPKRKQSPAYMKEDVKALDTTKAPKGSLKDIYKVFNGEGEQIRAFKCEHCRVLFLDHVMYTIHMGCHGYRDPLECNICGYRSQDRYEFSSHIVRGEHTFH
Chain of IKZF2 (Homo sapiens (Human), UniProt Q9UKS7) (Q96SW2 whole entry, further chain): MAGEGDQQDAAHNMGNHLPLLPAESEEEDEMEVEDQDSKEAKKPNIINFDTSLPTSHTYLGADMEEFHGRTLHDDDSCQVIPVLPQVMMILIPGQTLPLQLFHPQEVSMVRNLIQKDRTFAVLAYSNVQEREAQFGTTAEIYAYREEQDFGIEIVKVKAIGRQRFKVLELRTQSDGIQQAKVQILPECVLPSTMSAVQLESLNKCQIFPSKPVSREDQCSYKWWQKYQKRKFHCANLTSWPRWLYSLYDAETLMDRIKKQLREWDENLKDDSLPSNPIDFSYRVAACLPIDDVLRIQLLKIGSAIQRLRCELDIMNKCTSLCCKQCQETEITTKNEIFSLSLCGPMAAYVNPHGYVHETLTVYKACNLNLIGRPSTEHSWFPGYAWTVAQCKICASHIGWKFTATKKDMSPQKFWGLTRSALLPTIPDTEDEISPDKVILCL
Chain of IKZF2 (Homo sapiens (Human), UniProt Q9UKS7) (Q16531 whole entry partner): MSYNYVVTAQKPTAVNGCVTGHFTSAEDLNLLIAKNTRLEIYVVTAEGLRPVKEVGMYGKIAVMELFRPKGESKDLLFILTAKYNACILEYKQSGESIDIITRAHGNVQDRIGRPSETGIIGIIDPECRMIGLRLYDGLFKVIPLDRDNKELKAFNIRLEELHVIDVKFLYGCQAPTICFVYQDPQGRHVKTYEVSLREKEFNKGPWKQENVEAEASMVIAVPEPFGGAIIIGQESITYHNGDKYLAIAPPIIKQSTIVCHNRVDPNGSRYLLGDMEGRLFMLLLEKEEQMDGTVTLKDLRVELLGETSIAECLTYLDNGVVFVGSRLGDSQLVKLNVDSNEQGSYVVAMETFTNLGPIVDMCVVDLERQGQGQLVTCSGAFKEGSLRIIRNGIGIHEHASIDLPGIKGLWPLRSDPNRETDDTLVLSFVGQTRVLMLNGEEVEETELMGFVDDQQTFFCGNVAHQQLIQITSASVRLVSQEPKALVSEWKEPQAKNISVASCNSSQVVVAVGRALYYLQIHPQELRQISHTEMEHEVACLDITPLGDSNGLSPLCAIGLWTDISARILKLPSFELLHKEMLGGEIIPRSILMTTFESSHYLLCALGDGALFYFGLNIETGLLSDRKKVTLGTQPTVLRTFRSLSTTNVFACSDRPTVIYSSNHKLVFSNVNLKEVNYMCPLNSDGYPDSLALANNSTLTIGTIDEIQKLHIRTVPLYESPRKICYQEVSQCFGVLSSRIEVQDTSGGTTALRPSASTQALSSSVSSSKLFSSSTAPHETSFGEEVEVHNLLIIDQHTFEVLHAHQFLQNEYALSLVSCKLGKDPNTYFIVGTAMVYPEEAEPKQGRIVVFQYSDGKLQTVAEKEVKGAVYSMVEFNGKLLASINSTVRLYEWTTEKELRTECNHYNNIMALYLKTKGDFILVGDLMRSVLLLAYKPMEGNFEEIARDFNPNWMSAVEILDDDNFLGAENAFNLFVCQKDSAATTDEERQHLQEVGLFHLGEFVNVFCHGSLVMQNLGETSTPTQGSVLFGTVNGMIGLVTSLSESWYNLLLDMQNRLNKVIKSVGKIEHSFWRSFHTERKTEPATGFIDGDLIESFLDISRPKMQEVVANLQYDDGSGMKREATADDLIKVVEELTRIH
T1 sequence (Q9UKS7 whole entry): as the sequence (Q9UKS7 whole entry) above
T1 sequence (Q96SW2 whole entry): as the sequence (Q96SW2 whole entry, further chain) above
T1 sequence (Q16531 whole entry partner): as the sequence (Q16531 whole entry partner) above
Chain of IKZF1 (Q13422 whole entry): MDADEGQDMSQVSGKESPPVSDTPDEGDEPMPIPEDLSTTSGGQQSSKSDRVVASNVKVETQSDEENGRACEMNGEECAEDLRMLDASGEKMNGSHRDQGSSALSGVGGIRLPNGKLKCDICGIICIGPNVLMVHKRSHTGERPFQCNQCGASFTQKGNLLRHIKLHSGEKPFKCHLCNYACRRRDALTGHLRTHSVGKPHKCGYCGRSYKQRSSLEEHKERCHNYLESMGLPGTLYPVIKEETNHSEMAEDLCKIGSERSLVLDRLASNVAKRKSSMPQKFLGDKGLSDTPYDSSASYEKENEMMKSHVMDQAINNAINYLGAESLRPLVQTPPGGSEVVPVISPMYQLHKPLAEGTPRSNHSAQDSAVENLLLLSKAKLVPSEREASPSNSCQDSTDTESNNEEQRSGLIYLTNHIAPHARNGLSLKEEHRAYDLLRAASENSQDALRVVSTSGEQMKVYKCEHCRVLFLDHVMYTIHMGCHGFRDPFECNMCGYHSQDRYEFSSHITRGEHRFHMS
Chain of IKZF1 (Q96SW2 whole entry): as the sequence (Q96SW2 whole entry, further chain) above
Chain of IKZF1 (Q16531 whole entry partner): as the sequence (Q16531 whole entry partner) above
Chain of His tagged CRBN+DDB−DLS7+CXU4 (Q96SW2 whole entry): as the sequence (Q96SW2 whole entry, further chain) above
Chain of His tagged CRBN+DDB−DLS7+CXU4 (Q16531 whole entry partner): as the sequence (Q16531 whole entry partner) above

| SMILES | Dmax (IKZF2 [1]; Jurkat cells, 24 hrs) | DC50 (IKZF2 [2]) | IC50 [3] | DC50 (IKZF2 [4]; [5]) | Dmax (IKZF2 [4]; [5]) | DC50 (IKZF1; [6]) | Dmax (IKZF1; [6]) | Dmax (IKZF2 [1]; Jurkat) | Dmax (IKZF2 [4]) | Dmax (IKZF1) |
| --- | --- | --- | --- | --- | --- | --- | --- | --- | --- | --- |
| O=C1CC[C@H](N2Cc3c(ccc4c3OCC43CCN(Cc4cccc(-c5cnn(C6COC6)c5)c4)CC3(F)F)C2=O)C(=O)N1 (stereo partly drawn) [Compound B32, (3S)-3-(3′,3′-difluoro-1′-(3-(1-(oxetan-3-yl)-1H-pyrazol-4-yl)benzyl)-6-oxo-6,8-dihydro-2H,7H-spiro[furo[2,3-e]isoindole-3,4′-piperidin]-7-yl)piperidine-2,6-dione] | 40 to 60% | < 10 nM | 100 to 500 nM | < 1 nM | 60 to 80% | > 1000 nM | < 20% |  |  |  |
| Cn1cc(-c2cccc(CN3CC[C@]4(COc5c4ccc4c5CN([C@H]5CCC(=O)NC5=O)C4=O)C(F)(F)C3)c2)cn1 [Compound B51, (S)-3-((S)-3′,3′-difluoro-1′-(3-(1-methyl-1H-pyrazol-4-yl)benzyl)-6-oxo-6,8-dihydro-2H,7H-spiro[furo[2,3-e]isoindole-3,4′-piperidin]-7-yl) piperidine-2,6-dione] | > 60% | < 10 nM | < 100 nM | < 1 nM | 60 to 80% | > 1000 nM | < 20% |  |  |  |
| Cn1cc(-c2cccc(CN3CCC4(CC3)COc3c4ccc4c3CN([C@@H]3CCC(=O)NC3=O)C4=O)c2)cn1 [Compound B14, (R)-3-(1′-(3-(1-methyl-1H-pyrazol-4-yl)benzyl)-6-oxo-6,8-dihydro-2H,7H-spiro[furo[2,3-e]isoindole-3,4′-piperidin]-7-yl)piperidine-2,6-dione] |  | > 10 nM | 1000 to 5000 nM | 1 to 10 nM |  | > 1000 nM |  | 40 to 60% | > 80% | < 20% |
| Cn1cc(-c2cccc(CN3CCC4(CC3)COc3c5c(cc(F)c34)C(=O)N([C@H]3CCC(=O)NC3=O)C5)c2)cn1 [Compound B55, (S)-3-(4-fluoro-1′-(3-(1-methyl-1H-pyrazol-4-yl)benzyl)-6-oxo-6,8-dihydro-2H,7H-spiro[furo[2,3-e]isoindole-3,4′-piperidin]-7-yl)piperidine-2,6-dione] | 40 to 60% | < 10 nM |  | < 1 nM | > 80% | > 1000 nM | < 20% |  |  |  |
| Cn1cc(-c2cccc(CN3CCC4(COc5c4ccc4c5CN(C5CCC(=O)NC5=O)C4=O)C(F)(F)C3)c2)cn1 (stereo not drawn) [Compound B26, 3-(3′,3′-difluoro-1′-(3-(1-methyl-1H-pyrazol-4-yl)benzyl)-6-oxo-6,8-dihydro-2H,7H-spiro[furo[2,3-e]isoindole-3,4′-piperidin]-7-yl)piperidine-2,6-dione] | > 60% | < 10 nM |  | 1 to 10 nM | > 80% | > 1000 nM | < 20% |  |  |  |
| O=C1CC[C@H](N2Cc3c(ccc4c3OC[C@]43CCN(Cc4cccc(-c5cnn(C6COC6)c5)c4)CC3(F)F)C2=O)C(=O)N1 [Compound B53, (S)-3-((S)-3′,3′-difluoro-1′-(3-(1-(oxetan-3-yl)-1H-pyrazol-4-yl)benzyl)-6-oxo-6,8-dihydro-2H,7H-spiro[furo[2,3-e]isoindole-3,4′-piperidin]-7-yl)piperidine-2,6-dione] | 40 to 60% | < 10 nM |  | < 1 nM | > 80% | > 1000 nM | < 20% |  |  |  |
| N#Cc1ccc(-n2cc(CN3CCC4(COc5c4ccc4c5CN([C@H]5CCC(=O)NC5=O)C4=O)C(F)(F)C3)cn2)cc1 (stereo partly drawn) [Compound B27, 4-(4-((7-((S)-2,6-dioxopiperidin-3-yl)-3′,3′-difluoro-6-oxo-7,8-dihydro-2H,6H-spiro[furo[2,3-e]isoindole-3,4′-piperidin]-1′-yl)methyl)-1H-pyrazol-1-yl)benzonitrile] | < 40% | > 10 nM |  | 1 to 10 nM | 60 to 80% | > 1000 nM | < 20% |  |  |  |
| O=C1CC[C@H](N2Cc3c(ccc4c3OCC43CCN(Cc4cnn(CC5CCOCC5)c4)CC3(F)F)C2=O)C(=O)N1 (stereo partly drawn) [Compound B46, (3S)-3-(3′,3′-difluoro-6-oxo-1′-((1-((tetrahydro-2H-pyran-4-yl)methyl)-1H-pyrazol-4-yl)methyl)-6,8-dihydro-2H,7H-spiro[furo[2,3-e]isoindole-3,4′-piperidin]-7-yl)piperidine-2,6-dione] | 40 to 60% | < 10 nM |  | 1 to 10 nM | 60 to 80% | > 1000 nM | < 20% |  |  |  |
